{"source": "patent US20160032269A1", "about": "“BUFFERS FOR USE WITH POLYMERASES” (priority 2014, published 2016)", "key": {"[1]": {"test_system": "polymerase derived from two parental polymerases, Pfu and DeepVent, and fused with an Sso7d", "assay": "Effect of surfactant additives on PCR yield (agarose gel)", "assay_type": "biochemical", "settings": "for PCR yield: additive in PCR reaction mixture, 20 ng template DNA, FIG. 1", "protocol": "The effect of various surfactants on polymerase activity and yield in a PCR reaction mixture was tested. A polymerase derived from two parental polymerases, Pfu and DeepVent, and fused with an Sso7d, was formulated in a variety of reaction mixtures in an effort to identify reaction components that improve PCR yield.\nA reaction mixture comprising polymerase, Tris-HCL pH 9.0, KCl, ammonium sulfate, 20 ng template DNA and target primers was tested with one or more additional components added as follows (results shown in FIG. 1):\nRanges of concentration of CTAB and SDS were tested and additional components such as octyl b-D-glucopyranoside (OGP) and bovine serum albumin (BSA) were also tested. See, FIG. 2. The lanes of FIG. 2. are described in Table 2 below:\n(§1) In view of the surprising success of the reaction mixture comprising SDS and CTAB, a 5× stock solution was generated."}, "[2]": {"assay": "Precipitate formation in 5× stock solution", "assay_type": "physicochemical", "text": "as §1"}}, "note": "Entries after “also recorded” stand apart in the source; their conditions may differ.", "data": [{"molecule": "CCCCCCCCCCCCCCCC[N+](C)(C)C.[Br-]", "note": "[CTAB, cetyl trimethylammonium bromide]", "values": [{"measurement": "PCR yield", "setting": "[1]", "result": "did not improve PCR yield; also recorded: does not provide any apparent benefit"}]}, {"molecule": "CCCCCCCCCCCCOS(=O)(=O)[O-].[Na+]", "note": "[SDS, sodium dodecyl sulfate]", "values": [{"measurement": "PCR yield", "setting": "[1]; sulfate", "result": "did not improve PCR yield; also recorded: does not provide any apparent benefit"}]}, {"molecule": "C[C@H](CCC(=O)NCCC[N+](C)(C)CCCS(=O)(=O)[O-])[C@H]1CC[C@H]2[C@@H]3[C@H](O)C[C@@H]4C[C@H](O)CC[C@]4(C)[C@H]3C[C@H](O)[C@]12C", "note": "[CHAPS, 3-[(3-cholamidopropyl)dimethylammonio]-1-propanesulfonate]", "values": [{"measurement": "interference with PCR", "setting": "[1]; CHAPS in 5× stock solution used in PCR reactions, data not shown", "result": "did not interfere with PCR"}, {"measurement": "precipitate in stock solution", "setting": "[2]; 5× stock solution contained 1% CHAPS", "result": "no precipitate was observed"}, {"measurement": "precipitate in stock solution", "setting": "[2]; CHAPS added to the 5× stock solution", "result": "prevented formation of a precipitate"}]}]}
